Entries after “also recorded” stand apart in the source; their conditions may differ. Like-named read-outs stand apart in the source and are kept apart here.
Experiments:
wild-type HBV [1] = test: intracellular HBV DNA replication assay, wild type; format: cell-based, Hepatitis B virus
Protocol: (§1) In view of the significance of lamivudine- and adefovir-resistant mutations in the clinical application of anti-HBV treatment, the synthesized nucleoside 15/18 was tested against HBV WT as well as lamivudine- and adefovir-resistant mutants.

HBV mutant rtM204V = test: intracellular HBV DNA replication assay, rtM204V; format: cell-based; conditions: Hepatitis B virus
Protocol: as §1

HBV mutant rtM204I = test: intracellular HBV DNA replication assay, rtM204I; format: cell-based; conditions: Hepatitis B virus
Protocol: as §1

HBV mutant rtL180M = test: intracellular HBV DNA replication assay, rtL180M; format: cell-based, Hepatitis B virus; conditions: for EC50 / EC90: Hepatitis B virus
Protocol: as §1

[2] = test system: HBV double mutant rtL180M/rtM204V; test: intracellular HBV DNA replication assay, double mutant; format: cell-based, Hepatitis B virus
Protocol: as §1

[3] = test system: HBV adefovir mutant rtN236T; test: intracellular HBV DNA replication assay, adefovir mutant; format: cell-based, Hepatitis B virus
Protocol: as §1

[4] = test system: lamivudine-resistant mutants including rtM204V/I±rtL180M; test: activity against lamivudine-resistant mutants relative to wild type; format: cell-based, Hepatitis B virus
Protocol: as §1

[5] = test system: HBV genotype C entecavir resistant clone (L180M+M204V+S202G); test: anti-HBV activity against entecavir resistant clone in Huh7 cells; format: cell-based, Hepatitis B virus; conditions: for EC50: Hepatitis B virus, Huh-7; for antiviral potency against the entecavir mutant / IC50: Huh7 cells; for IC50: HBV genotype C entecavir resistant clone
Text: (§2) A mono-phosphate prodrug can be useful not only to bypass the rate limiting initial phosphorylation step by the nucleoside kinase, thereby to increase the antiviral potency, but also it may potentially target the liver. Therefore, a phosphoramidite, compound 15P/18P was also synthesized.

HepG2 cells = test: mitochondrial toxicity by lactic dehydrogenase release; format: cell-based; conditions: human
[6] = biological target: T1, adenosine deaminase from calf thymus (Bos taurus, UniProt P56658); test: deamination study with adenosine deaminase; format: in vitro ADME
T1 construct: adenosine deaminase from calf thymus; from tissue; host or cells: calf thymus
T1 sequence (P56658 1-363): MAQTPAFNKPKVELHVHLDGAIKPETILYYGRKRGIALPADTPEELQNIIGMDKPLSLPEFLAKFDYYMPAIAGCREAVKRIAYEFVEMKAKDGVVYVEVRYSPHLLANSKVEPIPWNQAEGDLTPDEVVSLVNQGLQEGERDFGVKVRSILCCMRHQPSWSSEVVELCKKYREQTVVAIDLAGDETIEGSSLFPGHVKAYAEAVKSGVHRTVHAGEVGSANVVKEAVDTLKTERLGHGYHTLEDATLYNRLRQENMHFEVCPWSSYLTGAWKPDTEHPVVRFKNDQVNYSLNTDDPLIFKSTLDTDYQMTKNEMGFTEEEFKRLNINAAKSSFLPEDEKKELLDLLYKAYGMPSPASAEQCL

HBV = test: standard HBV assay (HBV Assay Results table); format: cell-based, Hepatitis B virus
Protocol: Drug susceptibility assays were performed as previously described. […]

[7] = cytotoxicity / cellular toxicity (CC50); conditions: Table 2
Protocol: Drug susceptibility assays were performed as previously described. Cytotoxicity assays in PBM, CEM and Vero cells were conducted as previously described. […] These compounds were tested in a standard HBV assay in the laboratory of Dr. Brent Korba.

WT HBV = test: anti-HBV activity against wild type in Huh7 cells (Table 2); format: cell-based, Hepatitis B virus
Text: as §2

wild-type HBV [8] = test: in vivo study in chimeric mice, wild-type HBV
Protocol: (§3) The FMCA monophosphate prodrug compound (15P/18P) was also tested in chimeric mice for activity.

[9] = test system: entecavir resistant HBV mutant (L180M+M204V+S202G); test: in vivo study in chimeric mice, entecavir resistant HBV mutant; conditions: for viral load down / activity: mice, entecavir resistant HBV mutant (L180M+M204V+S202G); for antiviral activity: preliminary, chimeric mice infected with lamivudine-adeforvir-entecavir triple mutant
Protocol: as §3

[10] = test system: HBV rtA181T and rtN236T mutations; conditions: cited from earlier work
[11] = test system: lamivudine-resistant mutants including rtM204V/I±rtL180M; conditions: literature reference 50; cited from earlier work
[12] = rtN236T, compared with adefovir

## C=C1[C@@H](n2cnc3c(N)ncnc32)[C@@H](F)[C@H](O)[C@H]1CO [Compound 15/18, (+)-(1R,2R,3R,5R)-3-(6-amino-9H-9-purinyl)-2-fluoro-5-(hydroxymethyl)-4-methylenecyclopentan-1-ol]
wild-type HBV [1]; Hepatitis B virus
  EC90: 4.5 µM
wild-type HBV [1]; Hepatitis B virus, HBV-WT, inhibition of 50% of HBV DNA
  EC50: 1.5 µM
wild-type HBV [1]; wild-type HBV
  fold more potent than adefovir in EC90: 1.5 fold
wild-type HBV [1]; wild-type HBV, EC50
  fold less potent than lamivudine: 7 fold
HBV mutant rtM204V
  EC50: 1.8 µM
HBV mutant rtM204I
  EC50: 1 µM
HBV mutant rtL180M
  EC50: 2.1 µM
  EC90: 5.1 µM
HBV mutant rtL180M; rtL180M
  fold increased antiviral activity in EC90 versus lamivudine: 4.3 fold
[2]; Hepatitis B virus
  EC50: 2.2 µM
  EC90: 5.5 µM
[3]; Hepatitis B virus
  EC50: 1.7 µM
  EC90: 4.6 µM
[3]; [12]
  fold enhanced EC50 value: 4.5 fold
  fold more favorable EC90 value: 7.8 fold
[4]
  cross-resistance to tested lamivudine-resistant mutants: not cross-resistant
[4]; rtM204V/I±rtL180M versus wild type
  fold increase against lamivudine-resistant mutants: 1.0-1.2 fold
[5]
  EC50: 0.67 µM
  antiviral potency against the entecavir mutant: still maintain the antiviral potency
HepG2 cells
  mitochondrial toxicity (lactic dehydrogenase release): did not exhibit any significant toxicity up to 100 μM
[6]
  stability against adenosine deaminase: completely stable

## C=C1C(COP(=O)(N[C@@H](C)C(=O)OC)Oc2ccccc2)C(O)C(F)C1n1cnc2c(N)ncnc21 (stereo partly shown) [Compound 15P/18P]
HBV; prodrug versus parent 15/18
  times more active than the compound where R1 and R1a are H: more than 10 times
[7]
  cellular toxicity in comparison to parent 15/18: without significant increase of cellular toxicity
[5]
  IC50: 0.05 µM
  antiviral potency against the entecavir mutant: still maintain the antiviral potency
WT HBV
  fold enhancement of anti-HBV potency in EC50 versus parent 15/18: 7 fold
  fold enhancement of anti-HBV potency in EC90 versus parent 15/18: 13 fold
wild-type HBV [8]
  viral load down: 2 log
[9]
  viral load down / activity: 1 log
  antiviral activity: exhibited antiviral activity

## Nc1ncnc2c1ncn2CCOCP(=O)(O)O [adefovir, reference compound]
wild-type HBV [1]; HBV-WT, inhibition of 90% of HBV DNA, read-out: EC90
  EC90: 7.1 µM
[2]; double mutant rtL180M/rtM204V, read-out: EC50
  EC50: 2.2 µM
[2]; double mutant rtL180M/rtM204V, read-out: EC90
  EC90: 8.5 µM
[10]
  increase in median effective concentration: two-fold to nine-fold

## C=C1[C@H](CO)[C@@H](O)C[C@@H]1n1cnc2c(=O)[nH]c(N)nc21 [entecavir]
[5]
  EC50: 1.2 µM
[9]; listed as ETV
  viral load down / activity: inactive; also recorded: not active
[9]
  antiviral activity: did not
[11]
  fold loss of activity against lamivudine-resistant mutants: 8 fold

## Nc1ccn([C@@H]2CS[C@H](CO)O2)c(=O)n1 [lamivudine, reference compound]
HBV; Hepatitis B virus, read-out: Control: 3TC EC50
  EC50: 2420 µM
HBV mutant rtL180M
  EC50: 1.5 µM
  EC90: 22 µM
HepG2 cells
  mitochondrial toxicity (lactic dehydrogenase release): did not exhibit any significant toxicity up to 100 μM

## (+)-(1R,2R,3R,5R)-3-(6-amino-9H-9-purinyl)-2-fluoro-5-(hydroxymethyl)-4-methylenecyclopentan-1-ol [Compound 15/18]
[5]
  IC50: 0.054 µM
